Like-named read-outs stand apart in the source and are kept apart here.

For data set [1], the system named is GIST-T1/D816E imatinib resistant cells. As to the kind of experiment: Colony outgrowth assay, GIST-T1/D816E. In kind it is cell-based. An excerpt: (§1) The outgrown cell colonies were stained with crystal violet and counted.
The subject of data set [2] is GIST-T1/T670I imatinib resistant cells. As to the kind of experiment: Colony outgrowth assay, GIST-T1/T670I. In kind it is cell-based.
Source text: as §1

Data set [3] addresses T1, human efflux transporter BCRP (Homo sapiens, UniProt Q9UNQ0).
T1 construct: inside-out membrane vesicles
T1 sequence (Q9UNQ0 1-655): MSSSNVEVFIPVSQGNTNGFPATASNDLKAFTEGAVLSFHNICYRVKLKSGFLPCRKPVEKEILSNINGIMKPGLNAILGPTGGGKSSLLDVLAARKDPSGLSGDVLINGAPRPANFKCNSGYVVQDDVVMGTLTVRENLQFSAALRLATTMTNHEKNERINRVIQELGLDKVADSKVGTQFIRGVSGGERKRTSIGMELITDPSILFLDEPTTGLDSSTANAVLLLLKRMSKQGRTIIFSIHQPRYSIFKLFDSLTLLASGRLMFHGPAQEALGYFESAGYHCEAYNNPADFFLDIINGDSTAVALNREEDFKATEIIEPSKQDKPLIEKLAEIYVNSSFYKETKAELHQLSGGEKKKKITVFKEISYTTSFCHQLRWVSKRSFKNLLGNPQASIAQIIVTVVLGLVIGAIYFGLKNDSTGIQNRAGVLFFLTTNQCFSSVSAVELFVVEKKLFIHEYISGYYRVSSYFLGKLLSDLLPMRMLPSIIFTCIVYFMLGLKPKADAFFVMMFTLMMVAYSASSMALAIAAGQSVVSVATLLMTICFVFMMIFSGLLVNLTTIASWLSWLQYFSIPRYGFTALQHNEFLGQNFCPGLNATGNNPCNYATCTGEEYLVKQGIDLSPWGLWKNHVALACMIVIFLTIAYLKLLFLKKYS
As to the kind of experiment: BCRP vesicular transport inhibition assay. Type of data set: biochemical. How it is done:
(§2) The IC50 value was estimated to be approximately 0.04 μM.

Another data set concerns the target T2, BCRP (Homo sapiens, UniProt Q9UNQ0).
T2 construct: inside-out membrane vesicles
T2 sequence (Q9UNQ0 1-655): T1 sequence (Q9UNQ0 1-655)
Briefly: BCRP vesicular transport inhibition assay. Type of data set: biochemical. The note with it: human; 0.04 μM, lowest concentration tested; read-out: inhibition of the transport of the probe substrate of BCRP. As to the method: as §2

Data set [4] has as its system GIST-T1 (57 bp exon 11 deletion) imatinib sensitive cells. As to the kind of experiment: Colony outgrowth assay, GIST-T1. Type of data set: cell-based.
Source text: as §1

The subject of another data set is GIST T1 xenograft. Briefly: GIST T1 xenograft model. In kind it is in vivo, mice. The note with it: for mice with partial tumor regression during the dosing period / mice with complete tumor regression during the dosing period: days 10-27; for mice remaining in partial tumor regression at the end of study: end of study day 66. As to the method:
The GIST T1 xenograft model was performed in compliance with all the laws, regulations and guidelines of the National Institutes of Health (NIH) and with the approval of the Animal Care and Use Committee of MI Bioresearch (Ann Arbor, MI), an AAALAC accredited facility. All mice had food and water ad libitum. […] Female Envigo nude mice (HsdCrl:Athymic Nude-NU-Foxn1nu; 6-7 weeks old) were inoculated subcutaneously just below the right high axilla with five million cells in Dulbecco's Phosphate Buffered Saline mixed with an equal volume of Matrigel, using a 27 gauge needle and syringe. When tumor burdens reached 117 mm^3 on average on day 10, mice were randomly assigned into groups such that the mean tumor burden for all groups was within 10% of the overall mean tumor burden for the study population. […] On Day 27, all animals were placed on control diet to monitor tumor regrowth. Tumor volume and body weight were measured thrice weekly. Tumor burden (mg) was estimated from caliper measurements by the formula: tumor burden (mg=mm^3)=(length×width^2)/2.

Data set [5] deals with Ba/F3 cells transformed with oncogenic KIT V560D mutant. The note with it: 100 nM, 250 nM or 500 nM imatinib single agent. As to the method: A saturation mutagenesis study was performed in Ba/F3 cells transformed with oncogenic KIT V560D mutant. DNA nicking was induced by N-ethyl-N-nitrosourea (ENU) for 18 hours to generate additional mutations in the KIT gene or other genes in a random fashion. Assays were conducted in 6 well plates with 100 cells seeded per well. […] These cells were subjected to PCR and sequencing of the KIT gene to determine the presence of a resistant secondary mutation induced by the ENU treatment.

The mark [6] stands for this setting: low dose Compound A approximately 25 mg/kg/day in diet, trametinib 0.5 mg/kg BID where combined.

For the compound `CCn1c(=O)c(-c2cc(NC(=O)Nc3ccccc3)c(F)cc2Br)cc2cnc(NC)cc21` [Compound A, 1-[4-bromo-5-[1-ethyl-7-(methylamino)-2-oxo-1,2-dihydro-1,6-naphthyridin-3-yl]-2-fluorophenyl]-3-phenylurea], the “GIST T1/D816E colony outgrowth” value in data set [1] (Compound A 50 nM, 100 nM or 250 nM single agent (FIG. 14B)) is given as 81-93 % of vehicle control. The “GIST T1/T670I colony outgrowth” value in data set [2] (Compound A 100 nM or 250 nM single agents, dose dependent (FIG. 10C)) was 78-89 % of vehicle control. In addition, the half-inhibitory concentration (IC50) is roughly 0.04 µM in data set [3] (7 concentrations, vesicular transport inhibition, read-out: IC50, BCRP (estimated)) and 0.04 µM in data set [3] (read-out: IC50, BCRP efflux transporter). In addition, the inhibition at 0.04 µM on BCRP was determined as 44%. Besides, in data set [4] (Compound A single agents (FIG. 14A)), the “GIST T1 colony outgrowth” value is recorded as 37-41 % of vehicle control. For the same compound, the “mice with partial tumor regression during the dosing period” value in the data set on GIST T1 xenograft (high dose Compound A approximately 100 mg/kg/day in diet) is reported as 4/10; in the data set with GIST T1 xenograft (setting [6]), 6/10. Also, the “mice with complete tumor regression during the dosing period” value in the data set on GIST T1 xenograft (high dose Compound A approximately 100 mg/kg/day in diet, trametinib 0.5 mg/kg BID where combined) is on record as 6/10; with GIST T1 xenograft (setting [6]) it was 2/10. For the same compound, the “mice remaining in partial tumor regression at the end of study” value in the data set with GIST T1 xenograft (high dose Compound A approximately 100 mg/kg/day, trametinib 0.5 mg/kg BID where combined) was 1/10; with GIST T1 xenograft (low dose Compound A approximately 25 mg/kg/day, trametinib 0.5 mg/kg BID where combined), 2/10.

On to `CCn1c(=O)c(-c2cc(NC(=O)Nc3ccccc3)c(F)cc2Br)cc2cnc(N)cc21` [Compound B, 1-(5-(7-amino-1-ethyl-2-oxo-1,2-dihydro-1,6-naphthyridin-3-yl)-4-bromo-2-fluorophenyl)-3-phenylurea], for which the “GIST T1/D816E colony outgrowth” value in data set [1] (Compound B 50 nM, 100 nM or 250 nM single agent (FIG. 9B)) is reported as 59-84 % of vehicle control; in data set [1] (Compound B 50 nM, 100 nM or 250 nM single agent (FIG. 15)), 52-95 % of vehicle control; in data set [1] (Compound B 100 nM or 250 nM single agent (FIG. 13B)), 58-84 % of vehicle control; in data set [1] (Compound B 100 nM or 250 nM single agents (FIG. 11B)), 74-83 % of vehicle control. Besides, the “GIST T1/T670I colony outgrowth” value in data set [2] (Compound B 50 nM, 100 nM, 250 nM single agents (FIG. 9C)) was 75-78 % of vehicle control; in data set [2] (Compound B 100 nM or 250 nM single (FIG. 13C)), 75-78 % of vehicle control; in data set [2] (Compound B 100 nM or 250 nM single agent (FIG. 11C)), 72-78 % of vehicle control. Further, the “reduction of GIST T1 colony outgrowth compared to vehicle control” value in data set [4] (Compound B single agent (FIG. 9A)) is reported as 42-54%. Further, the “GIST T1 colony outgrowth” value is 42-54 % of vehicle control in data set [4] (Compound B single agent (FIG. 13A)) and 27-31 % of vehicle control in data set [4] (each concentration of Compound B as a single agent (FIG. 11A)).

`Cc1ccc(NC(=O)c2ccc(CN3CCN(C)CC3)cc2)cc1Nc1nccc(-c2cccnc2)n1` [imatinib, reference compound]: the “outgrowth of resistant secondary KIT mutations” value in data set [5] is “T670I, K807E, and/or D816V imatinib-resistant secondary KIT mutants were identified”. In data set [2] (imatinib 500 nM single agent (FIG. 10C)), the “reduction of GIST-T1/T670I colonies” value is “does not show any reduction of colonies”.
